Paper PMC10150354, “Linearization of the Brevicidine and Laterocidine Lipopeptides Yields Analogues That Retain Full Antibacterial Activity” (Journal of Medicinal Chemistry, 2023)
Values after ≈ are worked out from the molar mass of the structure shown. Where a SMILES comes first, the peptide text is derived from it. Bridges are numbered along the chain shown (N, C = ends). [ ]: non-standard residue; d: D form. The star is where a group is joined. ξ: configuration not given here. Octanoyl(7-Me) = CC(C)CCCCCC(=O)*; Hexanoyl(4ξ-Me) = CCC(C)CCC(=O)*; dOrn = NCCC[C@@H](N)C(=O)O; Orn = NCCC[C@H](N)C(=O)O; Dap = NC[C@H](N)C(=O)O

Assays:
[1] = system: E. coli (MCR-1); format: cell-based, Escherichia coli; conditions: microbroth dilution per CLSI, MHB, 18 h at 37 °C, visual inspection, three technical replicates, E. coli 25922 carrying mcr-1
Procedure: (§1) Linear laterocidine (LL-OH, 4) and linear brevicidine (LB-OH, 5) were first synthesized by Fmoc SPPS, starting from 2-chlorotrityl (2-CT) chloride resin. The antibacterial activity of these peptides was then compared to brevicidine (1) and laterocidine (2) using minimum inhibitory concentration (MIC)/microbroth dilution assays (Table 1). The MICs of all peptides were determined against a panel of Gram-negative and Gram-positive ESKAPE pathogens. Additionally, a strain of E. coli carrying the mcr-1 gene was included in the panel. The mcr-1 gene is a transferrable plasmid that confers resistance against colistin, a last-resort antibiotic for Gram-negative infections, by reducing the overall negative charge of lipopolysaccharide (LPS) through modification of lipid A with phosphoethanolamine. The propensity for cationic antibiotics to bind to the cell membrane is therefore reduced. This gene has been observed in more than 27 bacterial species over six continents.[26] The spread of the mcr-1 gene could render colistin ineffectual; therefore, novel antibacterials are urgently required to overcome this form of resistance.
(§2) All minimum inhibitory concentrations (MICs) were determined according to Clinical and Laboratory Standards Institute (CLSI) guidelines. Blood agar plates were inoculated with glycerol stocks of E. coli ATCC 25922, K. pneumoniae ATCC 13883, A. baumannii ATCC 17961, P. aeruginosa PAO1, and S. aureus USA300. The inoculated agar plates were then incubated for 16 h at 37 °C. Individually grown colonies were subsequently used to inoculate 5 mL aliquots of TSB that were then incubated at 37 °C with shaking at 220 rpm. E. coli 25922 MCR-1 glycerol stock was used to inoculate 5 mL of TSB supplemented with kanamycin that was then incubated for 16 h at 37 °C with shaking at 220 rpm. The next day the culture was diluted 100-fold in TSB supplemented with kanamycin and incubated at 37 °C with shaking at 220 rpm. In parallel, the lipopeptide antibiotics DMSO stocks to be assessed were serially diluted with MHB in polypropylene 96-well plates (50 μL in each well). Colistin sulfate stocks were dissolved in water before being diluted with MHB. Aliquots of the inoculated TSB were incubated until an OD600 of around 0.5 was reached. The bacterial suspensions were then diluted with MHB (2 × 10^5 CFU/mL) and added to the microplates containing the test compounds (50 μL to each well). The well plates were sealed with an adhesive membrane and after 18 h of incubation at 37 °C with shaking at 600 rpm, the wells were visually inspected for bacterial growth. MIC values reported are based on three technical replicates and defined as the lowest concentration of the compound that prevented visible growth of bacteria.

[2] = system: E. coli ATCC 25922; format: cell-based, Escherichia coli; conditions: for Antibacterial activity (MIC) E. coli ATCC 25922: microbroth dilution per CLSI, MHB, 18 h at 37 °C, visual inspection, three technical replicates; for MIC (µg/mL) against E. coli (ATCC 25922): (Supplement 2)
Procedure: as §1, §2

[3] = system: K. pneumoniae ATCC 13883; format: cell-based, Klebsiella pneumoniae; conditions: microbroth dilution per CLSI, MHB, 18 h at 37 °C, visual inspection, three technical replicates
Procedure: as §1, §2

[4] = system: A. baumannii ATCC 17961; format: cell-based, Acinetobacter baumannii; conditions: microbroth dilution per CLSI, MHB, 18 h at 37 °C, visual inspection, three technical replicates
Procedure: as §1, §2

[5] = system: P. aeruginosa PAO1; format: cell-based, Pseudomonas aeruginosa; conditions: microbroth dilution per CLSI, MHB, 18 h at 37 °C, visual inspection, three technical replicates
Procedure: as §1, §2

[6] = system: S. aureus USA300; format: cell-based, Staphylococcus aureus; conditions: microbroth dilution per CLSI, MHB, 18 h at 37 °C, visual inspection, three technical replicates
Procedure: as §1, §2

| SMILES | Antibacterial activity (MIC) E. coli (MCR-1) [1] | Antibacterial activity (MIC) E. coli ATCC 25922 [2] | Antibacterial activity (MIC) K. pneumoniae ATCC 13883 [3] | Antibacterial activity (MIC) A. baumannii ATCC 17961 [4] | Antibacterial activity (MIC) P. aeruginosa PAO1 [5] | Antibacterial activity (MIC) S. aureus USA300 [6] | MIC (µg/mL) against E. coli (ATCC 25922) [2] |
| --- | --- | --- | --- | --- | --- | --- | --- |
| CCC(C)CCC(=O)N[C@H](CC(N)=O)C(=O)N[C@H](Cc1ccc(O)cc1)C(=O)N[C@H](Cc1c[nH]c2ccccc12)C(=O)N[C@H](CCCN)C(=O)N[C@@H](CCCN)C(=O)NCC(=O)N[C@H](CCCN)C(=O)N[C@@H](Cc1c[nH]c2ccccc12)C(=O)N[C@@H]1C(=O)N[C@@H]([C@@H](C)CC)C(=O)NCC(=O)N[C@@H](CO)C(=O)O[C@@H]1C (stereo partly drawn) [Brev (1), brevicidine] ({Hexanoyl(4ξ-Me)}-[dN][dY][dW][dOrn][Orn]G[dOrn]WTIGS; ester 9-C) | 4 µg/mL | 4 µg/mL | 2 µg/mL | 4 µg/mL | 8 µg/mL | >32 µg/mL |  |
| CCC(C)CCC(=O)N[C@H](CC(N)=O)C(=O)N[C@H](Cc1ccc(O)cc1)C(=O)N[C@H](Cc1c[nH]c2ccccc12)C(=O)N[C@H](CCCN)C(=O)N[C@@H](C)C(=O)NCC(=O)N[C@H](CCCN)C(=O)N[C@@H](Cc1c[nH]c2ccccc12)C(=O)N[C@H](C(=O)N[C@H](C(=O)NCC(=O)N[C@@H](CO)C(N)=O)[C@@H](C)CC)[C@@H](C)O (stereo partly drawn) [LB(Ala5)-NH2 (21)] ({Hexanoyl(4ξ-Me)}-[dN][dY][dW][dOrn]AG[dOrn]WTIGS-NH2) |  |  |  |  |  |  | >32 µg/mL |
| CCC(C)CCC(=O)N[C@H](CC(N)=O)C(=O)N[C@H](Cc1ccc(O)cc1)C(=O)N[C@H](Cc1c[nH]c2ccccc12)C(=O)N[C@H](CCCN)C(=O)N[C@@H](CCCN)C(=O)NCC(=O)N[C@H](CCCN)C(=O)N[C@@H](C)C(=O)N[C@H](C(=O)N[C@H](C(=O)NCC(=O)N[C@@H](CO)C(N)=O)[C@@H](C)CC)[C@@H](C)O (stereo partly drawn) [LB(Ala8)-NH2 (24)] ({Hexanoyl(4ξ-Me)}-[dN][dY][dW][dOrn][Orn]G[dOrn]ATIGS-NH2) |  |  |  |  |  |  | >32 µg/mL |
| CCC(C)CCC(=O)N[C@H](CC(N)=O)C(=O)N[C@H](Cc1ccc(O)cc1)C(=O)N[C@H](Cc1c[nH]c2ccccc12)C(=O)N[C@H](CCCN)C(=O)N[C@@H](CCCN)C(=O)NCC(=O)N[C@H](CCCN)C(=O)N[C@@H](Cc1c[nH]c2ccccc12)C(=O)N[C@H](C(=O)N[C@@H](C)C(=O)NCC(=O)N[C@@H](CO)C(N)=O)[C@@H](C)O (stereo partly drawn) [LB(Ala10)-NH2 (26)] ({Hexanoyl(4ξ-Me)}-[dN][dY][dW][dOrn][Orn]G[dOrn]WTAGS-NH2) |  |  |  |  |  |  | >32 µg/mL |
| CCC(C)CCC(=O)N[C@H](CC(N)=O)C(=O)N[C@H](C)C(=O)N[C@H](Cc1c[nH]c2ccccc12)C(=O)N[C@H](CCCN)C(=O)N[C@@H](CCCN)C(=O)NCC(=O)N[C@H](CCCN)C(=O)N[C@@H](Cc1c[nH]c2ccccc12)C(=O)N[C@H](C(=O)N[C@H](C(=O)NCC(=O)N[C@@H](CO)C(N)=O)[C@@H](C)CC)[C@@H](C)O (stereo partly drawn) [LB(D-Ala2)-NH2 (18)] ({Hexanoyl(4ξ-Me)}-[dN][dA][dW][dOrn][Orn]G[dOrn]WTIGS-NH2) |  |  |  |  |  |  | >32 µg/mL |
| CCC(C)CCC(=O)N[C@H](CC(N)=O)C(=O)N[C@H](Cc1ccc(O)cc1)C(=O)N[C@H](C)C(=O)N[C@H](CCCN)C(=O)N[C@@H](CCCN)C(=O)NCC(=O)N[C@H](CCCN)C(=O)N[C@@H](Cc1c[nH]c2ccccc12)C(=O)N[C@H](C(=O)N[C@H](C(=O)NCC(=O)N[C@@H](CO)C(N)=O)[C@@H](C)CC)[C@@H](C)O (stereo partly drawn) [LB(D-Ala3)-NH2 (19)] ({Hexanoyl(4ξ-Me)}-[dN][dY][dA][dOrn][Orn]G[dOrn]WTIGS-NH2) |  |  |  |  |  |  | >32 µg/mL |
| CCC(C)CCC(=O)N[C@H](CC(N)=O)C(=O)N[C@H](Cc1ccc(O)cc1)C(=O)N[C@H](Cc1c[nH]c2ccccc12)C(=O)N[C@H](C)C(=O)N[C@@H](CCCN)C(=O)NCC(=O)N[C@H](CCCN)C(=O)N[C@@H](Cc1c[nH]c2ccccc12)C(=O)N[C@H](C(=O)N[C@H](C(=O)NCC(=O)N[C@@H](CO)C(N)=O)[C@@H](C)CC)[C@@H](C)O (stereo partly drawn) [LB(D-Ala4)-NH2 (20)] ({Hexanoyl(4ξ-Me)}-[dN][dY][dW][dA][Orn]G[dOrn]WTIGS-NH2) | >32 µg/mL | >32 µg/mL | >32 µg/mL | 32 µg/mL | 32 µg/mL | >32 µg/mL |  |
| CCC(C)CCC(=O)N[C@H](CC(N)=O)C(=O)N[C@H](Cc1ccc(O)cc1)C(=O)N[C@H](Cc1c[nH]c2ccccc12)C(=O)N[C@H](CCCN)C(=O)N[C@@H](CCCN)C(=O)NCC(=O)N[C@H](C)C(=O)N[C@@H](Cc1c[nH]c2ccccc12)C(=O)N[C@H](C(=O)N[C@H](C(=O)NCC(=O)N[C@@H](CO)C(N)=O)[C@@H](C)CC)[C@@H](C)O (stereo partly drawn) [LB(D-Ala7)-NH2 (23)] ({Hexanoyl(4ξ-Me)}-[dN][dY][dW][dOrn][Orn]G[dA]WTIGS-NH2) |  |  |  |  |  |  | >32 µg/mL |
| CCC(C)CCC(=O)N[C@H](CC(N)=O)C(=O)N[C@H](Cc1ccc(O)cc1)C(=O)N[C@H](Cc1c[nH]c2ccccc12)C(=O)N[C@H](CCCN)C(=O)N[C@@H](CCCN)C(=O)NCC(=O)N[C@H](CCCN)C(=O)N[C@@H](Cc1c[nH]c2ccccc12)C(=O)N[C@H](C(=O)N[C@H](C(=O)NCC(=O)N[C@@H](CO)C(=O)O)[C@@H](C)CC)[C@@H](C)O (stereo partly drawn) [LB-OH (5)] ({Hexanoyl(4ξ-Me)}-[dN][dY][dW][dOrn][Orn]G[dOrn]WTIGS-OH) | >32 µg/mL | >32 µg/mL | >32 µg/mL | >32 µg/mL | 16 µg/mL | >32 µg/mL |  |
| CC[C@H](C)[C@H](NC(=O)[C@@H](NC(=O)[C@H](Cc1c[nH]c2ccccc12)NC(=O)[C@@H](CCCN)NC(=O)CNC(=O)[C@H](C)NC(=O)[C@@H](CCCN)NC(=O)[C@@H](Cc1c[nH]c2ccccc12)NC(=O)[C@@H](Cc1ccc(O)cc1)NC(=O)[C@@H](CO)NC(=O)CCCCCC(C)C)[C@@H](C)O)C(=O)N[C@@H](CC(N)=O)C(=O)NCC(=O)NCC(N)=O [LL(Ala5)-NH2 (33)] ({Octanoyl(7-Me)}-[dS][dY][dW][dOrn]AG[dOrn]WTINGG-NH2) | >32 µg/mL | 32 µg/mL | >32 µg/mL | >32 µg/mL | 32 µg/mL | >32 µg/mL |  |
| CC[C@H](C)[C@H](NC(=O)[C@H](CN)NC(=O)[C@H](Cc1c[nH]c2ccccc12)NC(=O)[C@@H](CCCN)NC(=O)CNC(=O)[C@H](CCCN)NC(=O)[C@@H](CCCN)NC(=O)[C@@H](Cc1c[nH]c2ccccc12)NC(=O)[C@@H](Cc1ccc(O)cc1)NC(=O)[C@@H](CO)NC(=O)CCCCCC(C)C)C(=O)N[C@@H](CC(N)=O)C(=O)NCC(=O)NCC(N)=O [LL(Dap9)-NH2 (52)] ({Octanoyl(7-Me)}-[dS][dY][dW][dOrn][Orn]G[dOrn]W[Dap]INGG-NH2) | 8 µg/mL | 8 µg/mL | 32 µg/mL | 16 µg/mL |  | >32 µg/mL | 8 µg/mL (≈ 4.98 µM) |
